Patent US20240238426A1, “PROTEIN ACYLATION MODULATION BY HETEROBIFUNCTIONAL MOLECULES” (THE SCRIPPS RESEARCH INSTITUTE, priority 2021, published 2024)

Key:
Format in all cases: cell-based, Human
[1] = tested on: p300/CBP substrates, including c-Myc and STAT3; assay: Immunoblot of acetylation of other p300/CBP substrates in HeLa cells; settings: increasing concentration
Protocol: (§1) Immunoblotting: Cells were harvested in cold DPBS by scraping and washed with cold DPBS twice. Cell pellets were resuspended in DPBS supplemented with 5 mM sodium butyrate, 20 mM Nicotinamide, and 1X Halt Protease Inhibitor Cocktail and lysed by sonication (15 ms on, 40 ms off, 15% amplitude, 1s total on x 3). Protein concentration was determined using DC Protein Assay (Bio-Rad) and absorbance read using a CLARIOstar plate reader following manufacturer's instructions. Samples with equal protein content were boiled in 4X SDS gel loading buffer for 10 min. Proteins were separated by 10%, 12.5%, or 15% SDS-polyacrylamide gel electrophoresis and transferred to PVDF membranes using Trans-Blot Turbo RTA Mini […] LF PVDF Transfer Kit (Bio-Rad). Membranes were incubated for 1 h at room temperature with blocking buffer, followed by incubating overnight at 4° C. with primary antibodies. After washing in TBST, the secondary antibodies were incubated with the membranes at room temperature for 1 h. The membranes were washed with TBST for three times and visualized on a Bio-Rad ChemiDoc MP Imaging System with Clarity Max Western ECL substrate (Bio-Rad) or SuperSignal West Femto Chemiluminescent substrate proprietary luminol and peroxide solution kit (Thermo Scientific Pierce).

[2] = tested on: p21 (CDKNIA), PUMA, MDM2, and GLS2; assay: Immunoblot of p53 target gene expression in FKBP12^F36V-p53 H1299 cells
Protocol: as §1

[3] = tested on: p21; assay: qPCR analysis of p21 mRNA level in FKBP12^F36V-p53 H1299 cells; settings: indicated doses, 8 hr, FIG. 7C
[4] = tested on: p21; assay: Immunoblot of p21 expression in p53 H1299 cells without the FKBP12^F36V tag; settings: indicated doses, 8 hr, FIG. 7D
Protocol: as §1

[5] = tested on: TP53 target genes; assay: RNA-seq analysis of FKBP12^F36V-p53 H1299 cells
[6] = tested on: TP53 target genes; assay: RNA-seq analysis of H1299 wt cells; settings: 3 μM AceTAG-1, FIG. 7F
[7] = tested on: p21 promoter; assay: ChIP-qPCR of FKBP12^F36V-p53 binding to p21 promoter; settings: AceTAG-1 treatment vs DMSO, FIG. 7G
From the text: The p53/p21 ^CIP/WAF1 pathway is one of the most well-studied pathways related to p53 acetylation ^[8a, 14]. It has been reported that acetylation of p53 at lysine 373 and 382 play an important in activating transcription and translation of the p21^CIP/WAF1 gene^[15], which inhibits cell cycle progression during G1 and G2 phases ^[16]. However, it is still unknown whether these are the only two sites necessary for activation of downstream pathway. Moreover, the molecular mechanism as to how AceTAG-1 mediates p21 induction is currently uncertain as there are multiple hypotheses of how p53 acetylation affects transcriptional activity. […] We first tested whether AceTAG-mediated p53 acetylation increases its DNA binding to p21 promoter by ChIP-qPCR. The cells were incubated with AceTAG-1 and FKBP12^F36V-HA-p53 was immunoprecipitated, where DNA binding to the protein was purified for qPCR analysis. Among five p21 DNA sequences, binding of FKBP12^F36V-p53 to four previously reported p53 binding sites on p21 promoter (Mujtaba et al., Molecular Cell 13, 251-263, 2004) were increased with AceTAG-1 treatment.

[8] = 3 μM AceTAG-1 compared to vehicle, FIG. 7F

CC[C@H](C(=O)N1CCCC[C@H]1C(=O)O[C@H](CCc1ccc(OC)c(OC)c1)c1cccc(OCC(=O)NCCOCCOCCC(=O)NCCOc2ccc(CCc3nc4cc(-c5c(C)noc5C)ccc4n3CCN3CCOCC3)cc2)c1)c1cc(OC)c(OC)c(OC)c1 [AceTAG-1, (R)-3-(3,4-dimethoxyphenyl)-1-(3-((15-(4-(2-(5-(3,5-dimethylisoxazol-4-yl)-1-(2-morpholinoethyl)-1H-benzo[d]imidazol-2-yl)ethyl)phenoxy)-2,12-dioxo-6,9-dioxa-3,13-diazapentadecyl)oxy)phenyl)propyl (S)-1-((S)-2-(3,4,5-trimethoxyphenyl)butanoyl)piperidine-2-carboxylate]
acetylation of c-Myc and STAT3 ([1]; FIG. 5B): no observable acetylation changes | broader acetylation perturbation (acetylated lysine immunoblot) ([1]; FIG. 5C): no observable acetylation changes | p21 expression level at higher concentration ([2]; FIGS. 7A and 7B): reflected the ‘hook effect’ | p21 expression ([2]; indicated doses, 8 hr and 24 hr exposure, FIGS. 7A and 7B): strong dose-dependent expression | expression of PUMA, MDM2, and GLS2 ([2]; indicated doses, FIG. 7A): insignificant effects | transcription of p21 (mRNA, qPCR) [3]: confirmed | p21 induction in H1299 cells expressing p53 without the FKBP12^F36V tag [4]: not observed | increases in apoptotic (Bax, Puma), metabolic (GLS2) or autoregulatory (Mdm2) targets ([5]; 3 μM AceTAG-1, RNA-seq): little to no increases | upregulation of CDKNIA transcript [5, 8]: ~2.8 fold | upregulation of GDF15 transcript [5, 8]: ~3 fold | upregulation of SLC7A11 transcript [5, 8]: ~1.7 fold | upregulation of TP5313 transcript [5, 8]: ~1.6 fold | changes of TP53 target genes in H1299 wt cells [6]: minimal changes | binding at the non p53 binding sites within the C-terminus of p21 gene [7]: no significant increase | binding of FKBP12^F36V-p53 to four p53 binding sites on p21 promoter [7]: increased
